Measured values taken from ChEMBL document CHEMBL3112536, “Pd-N-heterocyclic carbene catalyzed synthesis of piperidine alkene-alkaloids and their anti-cancer evaluation” (Bioorg Med Chem Lett, 2014).
≈ marks a conversion by molar mass, not a printed value.

Legend:
Type in all cases: functional, cell-based
OVCAR-3 = assay: Cytotoxicity against human OVCAR3 cells assessed as growth inhibition after 24 hrs by MTT assay; details: OVCAR-3, 24 h
MCF7 = assay: Cytotoxicity against human MCF7 cells assessed as growth inhibition after 24 hrs by MTT assay; details: MCF7, 24 h
A549 = assay: Cytotoxicity against human A549 cells assessed as growth inhibition after 24 hrs by MTT assay; details: A549, 24 h

Row | Compound | IC50 (OVCAR-3) [µg/mL] | IC50 (MCF7) [µg/mL] | IC50 (A549) [µg/mL]
1 | CN1CCCC[C@H]1/C=C/c1ccc(O)cc1 | 1.94 (≈ 8.93 µM) | 1.51 (≈ 6.95 µM) | 3.45 (≈ 15.9 µM)
2 | C(=C\[C@@H]1CCCCN1)/c1ccccc1 | 10.5 (≈ 55.9 µM) | 9.15 (≈ 48.9 µM) | 9.99 (≈ 53.3 µM)
3 | Cc1ccc(/C=C/[C@@H]2CCCCN2)cc1 | 8.48 (≈ 42.1 µM) | 5.35 (≈ 26.6 µM) | 8.56 (≈ 42.5 µM)
4 | COc1ccc(/C=C/[C@@H]2CCCCN2)cc1 | 3.31 (≈ 15.2 µM) | 3.57 (≈ 16.4 µM) | 4.33 (≈ 19.9 µM)
5 | COc1ccccc1/C=C/[C@@H]1CCCCN1 | 4.78 (≈ 22 µM) | 3.81 (≈ 17.5 µM) | 4.94 (≈ 22.7 µM)
6 | Cc1cccc(C)c1/C=C/[C@@H]1CCCCN1 | 6.27 (≈ 29.1 µM) | 4.29 (≈ 19.9 µM) | 7.28 (≈ 33.8 µM)
7 | CCc1ccc(/C=C/[C@@H]2CCCCN2)cc1 | 5.07 (≈ 23.5 µM) | 4.13 (≈ 19.2 µM) | 5.94 (≈ 27.6 µM)
8 | O=[N+]([O-])c1ccc(/C=C/[C@@H]2CCCCN2)cc1 | 1.02 (≈ 4.39 µM) | 2.15 (≈ 9.26 µM) | 3.27 (≈ 14.1 µM)
9 | CC(=O)c1ccc(/C=C/[C@@H]2CCCCN2)cc1 | 2.18 (≈ 9.51 µM) | 2.7 (≈ 11.8 µM) | 3.69 (≈ 16.1 µM)
10 | FC(F)(F)c1ccc(/C=C/[C@@H]2CCCCN2)cc1 | 0.99 (≈ 3.88 µM) | 1.25 (≈ 4.9 µM) | 2.82 (≈ 11 µM)
